How the values were obtained:
[1] = biological target: T1, C5a receptor (Mus musculus, UniProt P30993); experiment: Reverse Passive Arthus Reaction model, immune complex peritonitis; assay type: in vivo, mice; details: intraperitoneal injection of 1 mg/kg as a liquid formulation
T1 construct: from tissue; host or cells: live mice (peritoneal neutrophil chemotaxis, in vivo)
T1 sequence (P30993 1-351): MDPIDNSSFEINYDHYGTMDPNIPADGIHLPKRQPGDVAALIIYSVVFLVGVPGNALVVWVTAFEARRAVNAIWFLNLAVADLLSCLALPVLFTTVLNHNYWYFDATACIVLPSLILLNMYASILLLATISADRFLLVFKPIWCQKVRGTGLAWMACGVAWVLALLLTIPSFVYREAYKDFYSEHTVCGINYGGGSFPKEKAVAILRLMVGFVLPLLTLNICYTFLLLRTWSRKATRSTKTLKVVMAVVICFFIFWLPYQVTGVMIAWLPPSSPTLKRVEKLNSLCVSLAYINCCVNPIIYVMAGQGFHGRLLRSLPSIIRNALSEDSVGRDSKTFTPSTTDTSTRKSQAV
From the text: C5a is a potent chemokine, inducing polymorphic nucleated granulocyte (neutrophils) and monocyte/macrophage chemotaxis. In the Reverse Passive Arthus Reaction model in mice, an immune complex peritonitis is induced by the intravenous administration of ovalbumin followed by intraperitoneal administration of an anti-ovalbumin antiserum, which leads to the formation of antigen-antibody complexes and subsequent activation of the complement system, including generation of C5a [Heller et al., 1999]. (Heller et al (1999) J Immunol 163; 985-994).

[2] = biological target: T2, C5aR (Mus musculus, UniProt P30993); experiment: Allogenic kidney transplantation model (ischemia reperfusion injury); assay type: in vivo, mice
T2 construct: from tissue; host or cells: live mice (kidney allograft recipients, in vivo)
T2 sequence (P30993 1-351): T1 sequence (P30993 1-351)
From the text: (Arumugam, T. V., Shiels I. A., Strachan, A. J., et al (2003) A small molecule C5a receptor antagonist protects kidneys from ischemia/reperfusion injury in rats. Kidney Int 63; 134-142, De Vries B, Matthijsen R A, Wolfs T G et al (2003a) Inhibition of complement factor C5 protects against renal ischemia-reperfusion injury: inhibition of late apoptosis and inflammation Transplantation 75; 375-382, De Vries B, Kohl J, Leclercq W K et al (2003b) Complement factor C5a mediates renal ischemia-reperfusion injury independent of neutrophils. J Immunol 170; 3883-3889.) JPE1375 liquid formulation is active in an allogenic transplantation model in mice. In this model rejection of the transplant is based on an ischemia reperfusion injury with measures of animal/graft survival and renal function. Blockade of C5aR with JPE1375 liquid formulation after transplantation prolonged survival of the animals from days to greater than 12 weeks compared to controls. C5aR blockade with JPE1375 microparticle sustained release formulation is expected to provide similar benefit after a single dose.

Substance: Hoo-Phe-Orn-Pro-hle-Pff-Phe-NH2 [JPE1375]
- inhibition of C5a receptor mediated chemotaxis [1]: high in vivo potency
- survival of the animals ([2]; after transplantation, prolonged from days, compared to controls): greater than 12 weeks
- activity in allogenic transplantation model ([2]; liquid formulation): active
